| melting point [°C] | SMILES |
| --- | --- |
| 163 to 164 | CC(C)n1nc(-c2c(-c3ccccc3)nn3ccc(N4CCN(C(=O)OC(C)(C)C)CC4)cc23)ccc1=O [Example 104, tert-Butyl 4-[3-(3-oxo-2-isopropyl-2,3-dihydropyridazin-6-yl)-2-phenylpyrazolo[1,5-a]pyridin-5-yl]-1-piperazinecarboxylate] |
| 136 to 138 | CC(C)n1nc(-c2c(-c3ccccc3)nn3ccc(N4CCN(Cc5ccccc5)CC4)cc23)ccc1=O [Example 105, 5-(4-Benzyl-1-piperazinyl)-3-(3-oxo-2-isopropyl-2,3-dihydropyridazin-6-yl)-2-phenylpyrazolo[1,5-a]pyridine] |
| 177 to 178 | COC1CCN(c2ccn3nc(-c4ccccc4)c(-c4ccc(=O)n(C(C)C)n4)c3c2)CC1 [Example 106, 5-(4-methoxy-1-piperidinyl)-3-(3-oxo-2-isopropyl-2,3-dihydropyridazin-6-yl)-2-phenylpyrazolo[1,5-a]pyridine] |
| 203 to 204 | CC(C)n1nc(-c2c(-c3ccccc3)nn3ccc(N4CCNCC4)cc23)ccc1=O [Example 107, 5-(1-piperazinyl)-3-(3-oxo-2-isopropyl-2,3-dihydropyridazin-6-yl)-2-phenylpyrazolo[1,5-a]pyridine] |
| 206 to 207 | COC(=O)N1CCN(c2ccn3nc(-c4ccccc4)c(-c4ccc(=O)n(C(C)C)n4)c3c2)CC1 [Example 108, methyl 4-[3-(3-oxo-2-isopropyl-2,3-dihydropyridazin-6-yl)-2-phenylpyrazolo[1,5-a]pyridin-5-yl]-1-piperazinecarboxylate] |
| 160 to 161 | CC(C)n1nc(-c2c(-c3ccccc3)nn3ccc(N4CCN(C(=O)N(C)C)CC4)cc23)ccc1=O [Example 109, 4-[3-(3-oxo-2-isopropyl-2,3-dihydropyridazin-6-yl)-2-phenylpyrazolo[1,5-a]pyridin-5-yl]-N,N-dimethyl-1-piperazinecarboxamide] |
| 219 to 220 | CC(C)n1nc(-c2c(-c3ccccc3)nn3ccc(N4CCN(S(C)(=O)=O)CC4)cc23)ccc1=O [Example 110, 5-[4-(Methylsulfonyl)-1-piperazinyl]-3-(3-oxo-2-isopropyl-2,3-dihydropyridazin-6-yl)-2-phenylpyrazolo[1,5-a]pyridine] |
| 219 to 220 | CC(C)n1nc(-c2c(-c3ccccc3)nn3ccc(N4CCN(S(=O)(=O)c5ccccc5)CC4)cc23)ccc1=O [Example 111, 5-[4-(Phenylsulfonyl)-1-piperazinyl]-3-(3-oxo-2-isopropyl-2,3-dihydropyridazin-6-yl)-2-phenylpyrazolo[1,5-a]pyridine] |
| 124 to 126 | CC(C)n1nc(-c2c(-c3ccccc3)nn3ccc(N4CCN(C(=O)c5ccccc5)CC4)cc23)ccc1=O [Example 112, 5-(4-Benzoyl-1-piperazinyl)-3-(3-oxo-2-isopropyl-2,3-dihydropyridazin-6-yl)-2-phenylpyrazolo[1,5-a]pyridine] |
| 148 to 149 | CC(=O)N1CCN(c2ccn3nc(-c4ccccc4)c(-c4ccc(=O)n(C(C)C)n4)c3c2)CC1 [Example 113, 5-(4-Acetyl-1-piperazinyl)-3-(3-oxo-2-isopropyl-2,3-dihydropyridazin-6-yl)-2-phenylpyrazolo[1,5-a]pyridine] |
| 129 to 130 | CC(C)n1nc(-c2c(-c3ccccc3)nn3ccc(N4CCN(C(=O)CN(C)C)CC4)cc23)ccc1=O [Example 114, 5-{4-[(dimethylamino)acetyl]-1-piperazinyl}-3-(3-oxo-2-isopropyl-2,3-dihydropyridazin-6-yl)-2-phenylpyrazolo[1,5-a]pyridine] |
| 183 to 184 | COc1ccn2nc(-c3ccccc3)c(-c3ccc(=O)n(C)n3)c2c1 [Example 115, 5-Methoxy-3-(3-oxo-2-methyl-2,3-dihydropyridazin-6-yl)-2-phenylpyrazolo[1,5-a]pyridine] |
| 148 to 149 | CCn1nc(-c2c(-c3ccccc3)nn3ccc(OC)cc23)ccc1=O [Example 116, 5-Methoxy-3-(3-oxo-2-ethyl-2,3-dihydropyridazin-6-yl)-2-phenylpyrazolo[1,5-a]pyridine] |
| 174 | CCCn1nc(-c2c(-c3ccccc3)nn3ccc(OC)cc23)ccc1=O [Example 117, 5-Methoxy-3-(3-oxo-2-propyl-2,3-dihydropyridazin-6-yl)-2-phenylpyrazolo[1,5-a]pyridine] |
| 207 to 208 | COc1ccn2nc(-c3ccccc3)c(-c3ccc(=O)n(C4CCOC4)n3)c2c1 (stereo not shown) [Example 118, 5-Methoxy-3-[3-oxo-2-(tetrahydrofuran-3-yl)-2,3-dihydropyridazin-6-yl]-2-phenylpyrazolo[1,5-a]pyridine] |
| 194 to 195 | COc1ccn2nc(-c3ccccc3)c(-c3ccc(=O)n([C@@H]4CCOC4)n3)c2c1 [Example 119, 5-Methoxy-3-[3-oxo-2-((3R)-tetrahydrofuran-3-yl)-2,3-dihydropyridazin-6-yl]-2-phenylpyrazolo[1,5-a]pyridine] |
| 194 to 195 | COc1ccn2nc(-c3ccccc3)c(-c3ccc(=O)n([C@H]4CCOC4)n3)c2c1 [Example 120, 5-Methoxy-3-[3-oxo-2-((3S)-tetrahydrofuran-3-yl)-2,3-dihydropyridazin-6-yl]-2-phenylpyrazolo[1,5-a]pyridine] |

| melting point [°C] | SMILES |
| --- | --- |
| 138 to 139 | COCC(C)n1nc(-c2c(-c3ccccc3)nn3ccc(OC)cc23)ccc1=O (stereo not shown) [Example 121, 5-Methoxy-3-[3-oxo-2-(1-methoxy-2-propyl)-2,3-dihydropyridazin-6-yl]-2-phenylpyrazolo[1,5-a]pyridine] |
| 154 to 155 | COc1ccn2nc(-c3ccccc3)c(-c3ccc(=O)n(C4CCN(C)CC4)n3)c2c1 [Example 122, 5-methoxy-3-[3-oxo-2-(1-methylpiperidin-4-yl)-2,3-dihydropyridazin-6-yl]-2-phenylpyrazolo[1,5-a]pyridine] |
| 179 to 180 | COc1ccn2nc(-c3ccccc3)c(-c3ccc(=O)n(C4CCCN(C)C4)n3)c2c1 (stereo not shown) [Example 123, 5-Methoxy-3-[3-oxo-2-(1-methylpiperidin-3-yl)-2,3-dihydropyridazin-6-yl]-2-phenylpyrazolo[1,5-a]pyridine] |
| 224 to 225 | COc1ccn2nc(-c3ccccc3)c(-c3ccc(=O)n(C4CCOCC4)n3)c2c1 [Example 124, 5-Methoxy-3-[3-oxo-2-(tetrahydropyran-4-yl)-2,3-dihydropyridazin-6-yl]-2-phenylpyrazolo[1,5-a]pyridine] |
| 220.5 to 221.5 | COc1ccn2nc(-c3ccccc3F)c(-c3ccc(=O)n(C)n3)c2c1 [Example 126, 5-Methoxy-3-(3-oxo-2-methyl-2,3-dihydropyridazin-6-yl)-2-(2-fluorophenyl)pyrazolo[1,5-a]pyridine] |
| 174 to 175 | COc1ccn2nc(-c3ccccc3F)c(-c3ccc(=O)n(C(C)C)n3)c2c1 [Example 127, 5-Methoxy-3-(3-oxo-2-isopropyl-2,3-dihydropyridazin-6-yl)-2-(2-fluorophenyl)pyrazolo[1,5-a]pyridine] |
| 176 to 177 | COc1ccn2nc(-c3ccc(F)cc3)c(-c3ccc(=O)n(C(C)C)n3)c2c1 [Example 129, 5-Methoxy-3-(3-oxo-2-isopropyl-2,3-dihydropyridazin-6-yl)-2-(4-fluorophenyl)pyrazolo[1,5-a]pyridine] |
| 221 to 222 | COc1ccn2nc(-c3ccc(F)cc3)c(-c3ccc(=O)n(C)n3)c2c1 [Example 130, 5-Methoxy-3-(3-oxo-2-methyl-2,3-dihydropyridazin-6-yl)-2-(4-fluorophenyl)pyrazolo[1,5-a]pyridine] |
| 179 to 180 | CCn1nc(-c2c(-c3ccc(F)cc3)nn3ccc(OC)cc23)ccc1=O [Example 131, 5-Methoxy-3-(3-oxo-2-ethyl-2,3-dihydropyridazin-6-yl)-2-(4-fluorophenyl)pyrazolo[1,5-a]pyridine] |
| 190 to 191 | CCCn1nc(-c2c(-c3ccc(F)cc3)nn3ccc(OC)cc23)ccc1=O [Example 132, 5-Methoxy-3-(3-oxo-2-propyl-2,3-dihydropyridazin-6-yl)-2-(4-fluorophenyl)pyrazolo[1,5-a]pyridine] |
| 157 to 159 | Nc1cccc2c(-c3ccc(=O)[nH]n3)c(-c3ccccc3)nn12 [Example 133, 7-amino-3-(3-oxo-2,3-dihydropyridazin-6-yl)-2-phenylpyrazolo[1,5-a]pyridine] |
| 218 to 219 | CC(C)n1nc(-c2c(-c3ccccc3)nn3c(N)cccc23)ccc1=O [Example 134, 7-Amino-3-(3-oxo-2-isopropyl-2,3-dihydropyridazin-6-yl)-2-phenylpyrazolo[1,5-a]pyridine] |
| 205 to 206 | COc1ccn2nc(-c3ccccc3)c(-c3ccc(=O)n(C(C)C)n3)c2c1Br [Example 135, 4-bromo-5-methoxy-3-(3-oxo-2-isopropyl-2,3-dihydropyridazin-6-yl)-2-phenylpyrazolo[1,5-a]pyridine] |
| 171 to 172 | CC(C)n1nc(-c2c(-c3ccccc3)nn3ccc(C#CC(C)(C)O)cc23)ccc1=O [Example 136, 5-(3-hydroxy-3-methyl-1-butynyl)-3-(3-oxo-2-isopropyl-2,3-dihydropyridazin-6-yl)-2-phenylpyrazolo[1,5-a]pyridine] |
| 185 to 186 | CC(C)n1nc(-c2c(-c3ccccc3)nn3ccc(C#Cc4ccccc4)cc23)ccc1=O [Example 138, 5-Phenylethynyl-3-(3-oxo-2-isopropyl-2,3-dihydropyridazin-6-yl)-2-phenylpyrazolo[1,5-a]pyridine] |
| 184 to 185 | CC(C)n1nc(-c2c(-c3ccccc3)nn3ccc(C(=O)NC4CC4)cc23)ccc1=O [Example 139, N-cyclopropyl-3-(3-oxo-2-isopropyl-2,3-dihydropyridazin-6-yl)-2-phenylpyrazolo[1,5-a]pyridine-5-carboxamide] |
| 239 to 240 | CC(C)n1nc(-c2c(-c3ccccc3)nn3ccc(C(=O)NC4CCCCCC4)cc23)ccc1=O [Example 140, N-Cycloheptyl-3-(3-oxo-2-isopropyl-2,3-dihydropyridazin-6-yl)-2-phenylpyrazolo[1,5-a]pyridine-5-carboxamide] |
